Reference: US20160082127A1, “PHOTOSENSITIZER PARTICLES FOR MEDICAL IMAGING AND/OR PHOTODYNAMIC THERAPY” (DCB-USA LLC, priority 2013, published 2016)

System: mice skin
Test: In vivo photohypersensitivity of mice skin
Set-up: species or system nude mice
Settings: 0.3 mg/kg i.v.
Experimental: It is well known that some PDT agents result in photohypersensitivity of the skin, which causes significant inconvenience in the daily life of the patient. Typical signs of photohypersensitivity include redness and swelling of the skin, visible angiopathy along with the formation of skin debris and even eschar in server cases. To investigate whether the present photosensitizer particles may elicit photohypersensitivity in the patient, 0.3 mg/kg native CPLA photosensitizer particles (LN1 particles from Example 2.1, above) and 0.3 mg/kg gas-loaded CPLA photosensitizer particles (LA1 particles from Example 2.1, above) were respectively injected to the tail of nude mice via intravenous injection 3 hours prior to light irradiation (15, 40 or 100 J/cm^2). Foscan® (0.3 mg/kg) was used as the positive control, while 1×PBS (100 μL) was used as negative control.

photohypersensitivity of skin (15 or 40 J/cm^2): little to mild photohypersensitivity
photohypersensitivity of skin (100 J/cm^2): significant photohypersensitivity
SMILES: Oc1cccc(-c2c3nc(c(-c4cccc(O)c4)c4ccc([nH]4)c(-c4cccc(O)c4)c4nc(c(-c5cccc(O)c5)c5ccc2[nH]5)CC4)C=C3)c1 [Foscan®]
